# Test results: the SangsterLogP compilation
# Columns and labels:
# [1] = method code SF-GLC, from PMID: 6629728; settings: pH 7.4
# [2] = not given; remark: listed apart in the source
# [3] = method code SF-AS, from DOI: 10.1002/jhet.5570150704
# [4] = method code SF-AS, from DOI: 10.1021/j150653a049
# [5] = method code SF-AS, from DOI: 10.1111/1523-1747.ep12263302, PMID: 6470515
# [6] = not given; remark: listed apart in the source
# [7] = method code SF, from DOI: 10.1002/1522-2675(20001004)83:10<2836::aid-hlca2836>3.0.co;2-g
# [8] = method code SF-AS, from DOI: 10.1021/bi00730a008, PMID: 4688860
# [9] = method code SF-AS, from DOI: 10.1016/j.bioorg.2006.09.003, PMID: 17078995; settings: pH 7.4
# [10] = method code SF-AS, from DOI: 10.1016/0378-5173(90)90042-3
# [11] = method code SF, from DOI: 10.1021/bk-1995-0606.ch005; settings: pH 5.0
# [12] = method code SF-C, from DOI: 10.1021/ja00901a033
# [13] = method code SF-AS, from DOI: 10.1007/bf01964075; settings: pH 2.1
# [14] = method code SF-AS, from DOI: 10.1248/cpb.32.2380
# [15] = method code SF-AS, from Korenman, Y.; Danilov, N. (1990). Extraction of alkyl salicylates from aqueous media. Journal of Applied Chemistry of the USSR, 63(1)125-129.
# [16] = method code SF-C, from DOI: 10.1038/194178b0
# [17] = method code SF, from DOI: 10.1248/yakushi1947.96.10_1169, PMID: 1033993; settings: pH 0.7
# [18] = method code SF-RC, from DOI: 10.1021/es60170a013
# [19] = not given; remark: listed apart in the source
# [20] = method code SF-AS, from DOI: 10.1021/jm00284a014, PMID: 5544400
# [21] = not given; remark: listed apart in the source
# [22] = not given; remark: listed apart in the source
# [23] = method code SF-AS, from DOI: 10.1016/0045-6535(83)90122-4
# [24] = not given; remark: listed apart in the source
# [25] = method code SF-AS, from DOI: 10.1016/0005-2728(86)90252-5, PMID: 3015209; settings: pH 7.2
# [26] = method code SF-HPLC, from PMID: 3799213; settings: pH 4.0
structure (smiles),measurement,setting,value
Cc1ncn(-c2ccc(Cl)cc2)c(=O)c1C(=O)O,logP,,2.26
C=CC1CCC2OC2C1 (centres undefined),logD,[1],2.08
NC(=O)c1cccnc1,logP,[2],-0.34
Cc1nonc1-c1ccccn1,logP,[3],2.09
CCCNC(=O)c1cccnc1,logP,[2],0.66
OCc1cccc(O)c1,logP,[4],0.5
Nc1ccc(Cl)c(N)c1,logP,[5],0.85
Nc1cc(Cl)cc(Cl)c1,logP,[6],2.6
CNCCc1ccccc1,logD,[7]; pH 12.5,1.68
O=CNc1cccc(Cl)c1,logP,[8],1.9
C1COC2CC2C1 (centres undefined),logD,[1],1.26
CCC(=O)OCCc1ccc(O)c(OC)c1,logD,[9],2.33
CCCCOC(=O)c1cc(=O)[nH]c(=O)[nH]1,logP,[10],1.33
COC(=O)c1ccccc1CS(=O)(=O)Nc1nc(OC)cc(OC)n1,logD,[11],2.4
Cc1ccc(OCC(=O)O)cc1,logP,[12],1.95
CNC(=O)C(C)NC(C)=O (racemic),logD,[13],-1.21
O=C(O)COc1ccc(I)cc1,logP,[12],2.69
NS(=O)(=O)c1cc2c(cc1C(F)(F)F)NCNS2(=O)=O,logP,[14],0.36
CCCCOC(=O)c1ccccc1O,logP,[15],4.63
O=C(O)COc1ccc(Cl)cc1,logP,[16],2.23
CCC1(C2CCCCC2)C(=O)NC(=O)N(C)C1=O (centres undefined),logD,[17],2
COc1ccc(Cl)cc1,logP,[18],2.78
CCC1C(=O)NC(=O)NC1=O,logD,[17],-0.35
Cc1ccc(CN)cc1,logD,[7]; pH 12.5,1.58
CC(C)OC(=O)c1cc(=O)[nH]c(=O)[nH]1,logP,[10],0.81
N#Cc1c(Cl)cccc1Cl,logP,[19],2.65
O=c1[nH]c2ccccc2[nH]1,logP,[20],1.12
CNc1ccc(C)cc1,logP,[21],2.15
C1=C\CC/C=C\CC/1,logP,[19],3.16
CCCOC(=O)c1cc(=O)[nH]c(=O)[nH]1,logP,[10],1.1
CCCOC(=O)c1ccccc1O,logP,[15],3.8
CNC(=O)[C@H](CC(C)C)NC(C)=O,logD,[13],0.14
C=CCC1(CC)C(=O)NC(=O)N(C)C1=O (centres undefined),logD,[17],1.35
NC(=O)c1c(Cl)cccc1Cl,logP,[22],1.25
O=[N+]([O-])c1ccc(Cl)c(Cl)c1,logP,[23],3.12
CN1C(CSCC(F)(F)F)Nc2cc(Cl)c(S(N)(=O)=O)cc2S1(=O)=O (centres undefined),logP,[14],1.9
N#Cc1ccc(OCC(=O)O)cc1,logP,[12],1.11
COc1ccc(S(N)(=O)=O)cc1,logP,[24],0.48
OCCc1ccc(O)c(O)c1,logD,[9],0.09
N#CC(C#N)=NNc1c(Cl)cccc1Cl,logD,[25],2.01
O=[N+]([O-])c1c(Cl)c(Cl)c(Cl)c(Cl)c1Cl,logP,[22],4.64
Nc1ccc(N)cc1,logP,[5],-0.3
Clc1ccc(Cl)c(Cl)c1,logP,[22],4.03
CCOC(=O)OCn1c(=O)[nH]cc(F)c1=O,logD,[26],0.15
CCCN1CCCN(CCC)C1=S,logP,[20],2.83
Nc1ccccc1-c1ccccc1,logD,[7]; pH 5.5,2.64
CCNc1nc(NCC)nc(SC)n1,logP,[6],2.63
CC(=O)c1ccc(NC=O)cc1,logP,[8],0.94
Cc1ccc(C)c(NN=C(C#N)C#N)c1,logD,[25],2.6
